The values below come from US11208412B2 (DAEGU-GYEONGBUK MEDICAL INNOVATION FOUNDATION, priority 2017, dated 2021).

Holding throughout (assay): Kinase selectivity, DiscoverX scanMAX Kinase assay panel (% control)
What all share (type): binding

In assay [1] the target is T1, kinases of the scanMAX Kinase assay panel (Homo sapiens, UniProt P0C264).
T1 construct: purchased DiscoverX Co. (contract measurement) scanMAX Kinase assay panel
T1 sequence (P0C264 1-359): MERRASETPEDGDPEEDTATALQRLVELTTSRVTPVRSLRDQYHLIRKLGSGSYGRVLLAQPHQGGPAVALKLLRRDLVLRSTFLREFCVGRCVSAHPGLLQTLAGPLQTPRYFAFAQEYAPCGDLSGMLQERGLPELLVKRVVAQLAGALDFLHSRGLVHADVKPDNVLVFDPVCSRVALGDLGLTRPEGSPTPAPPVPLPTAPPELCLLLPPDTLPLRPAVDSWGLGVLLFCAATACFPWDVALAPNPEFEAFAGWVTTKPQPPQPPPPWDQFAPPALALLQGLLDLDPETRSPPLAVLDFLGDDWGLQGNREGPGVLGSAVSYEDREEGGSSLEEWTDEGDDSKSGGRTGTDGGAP
Particulars: kinase SgK110; 1 uM in DMSO. In a few lines: (§1)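 Compounds were tested at 1 uM (in DMSO) against each panel kinase. % control was calculated as (compound − positive control)/(negative control − positive control)×100, where the positive control gives 0% and DMSO gives 100%. Activity toward a kinase was called at % control <35%.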

The target of assay [2] is T2, kinases of the scanMAX Kinase assay panel (Homo sapiens, UniProt P10721, D816H).
T2 construct: purchased DiscoverX Co. (contract measurement) scanMAX Kinase assay panel
T2 sequence (P10721 26-976 D816H): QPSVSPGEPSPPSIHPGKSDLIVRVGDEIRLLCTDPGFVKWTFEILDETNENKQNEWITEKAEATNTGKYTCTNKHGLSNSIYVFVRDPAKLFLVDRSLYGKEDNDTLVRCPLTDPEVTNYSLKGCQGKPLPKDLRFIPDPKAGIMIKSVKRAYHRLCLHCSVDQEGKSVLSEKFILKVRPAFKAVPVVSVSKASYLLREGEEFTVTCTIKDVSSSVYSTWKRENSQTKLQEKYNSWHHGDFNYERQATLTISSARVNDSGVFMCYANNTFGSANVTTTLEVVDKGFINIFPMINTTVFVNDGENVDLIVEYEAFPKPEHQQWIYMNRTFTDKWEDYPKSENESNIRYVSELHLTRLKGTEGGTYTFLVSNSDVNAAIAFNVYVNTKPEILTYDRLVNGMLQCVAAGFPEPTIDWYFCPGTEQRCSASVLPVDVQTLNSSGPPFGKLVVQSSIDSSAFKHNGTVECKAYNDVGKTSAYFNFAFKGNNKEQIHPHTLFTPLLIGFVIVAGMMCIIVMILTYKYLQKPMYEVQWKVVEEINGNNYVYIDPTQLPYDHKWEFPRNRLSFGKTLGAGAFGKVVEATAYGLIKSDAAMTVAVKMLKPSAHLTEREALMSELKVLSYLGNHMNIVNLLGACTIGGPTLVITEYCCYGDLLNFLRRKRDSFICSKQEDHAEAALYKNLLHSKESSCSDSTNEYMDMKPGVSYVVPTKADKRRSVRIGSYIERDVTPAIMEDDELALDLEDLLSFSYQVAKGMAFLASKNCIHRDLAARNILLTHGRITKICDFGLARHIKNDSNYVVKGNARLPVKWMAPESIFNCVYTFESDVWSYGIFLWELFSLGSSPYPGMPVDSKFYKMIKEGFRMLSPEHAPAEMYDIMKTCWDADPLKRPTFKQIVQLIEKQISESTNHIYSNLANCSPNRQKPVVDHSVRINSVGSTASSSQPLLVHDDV
The conditions noted are these: KIT(D816H); 1 uM. In a few lines: as §1

Assay [3] addresses T3, kinases of the scanMAX Kinase assay panel (Homo sapiens, UniProt P10721, V559D).
T3 construct: purchased DiscoverX Co. (contract measurement) scanMAX Kinase assay panel
The conditions noted are these: KIT(V559D); 1 uM. In a few lines: as §1

Assay [4] concerns the target T4, kinases of the scanMAX Kinase assay panel (Homo sapiens, UniProt P14616).
T4 construct: purchased DiscoverX Co. (contract measurement) scanMAX Kinase assay panel
The conditions noted are these: INSRR; 1 uM. In a few lines: as §1

Assay [5] deals with T5, kinases of the scanMAX Kinase assay panel (Homo sapiens, UniProt P17948).
T5 construct: purchased DiscoverX Co. (contract measurement) scanMAX Kinase assay panel
T5 sequence (P17948 27-1338): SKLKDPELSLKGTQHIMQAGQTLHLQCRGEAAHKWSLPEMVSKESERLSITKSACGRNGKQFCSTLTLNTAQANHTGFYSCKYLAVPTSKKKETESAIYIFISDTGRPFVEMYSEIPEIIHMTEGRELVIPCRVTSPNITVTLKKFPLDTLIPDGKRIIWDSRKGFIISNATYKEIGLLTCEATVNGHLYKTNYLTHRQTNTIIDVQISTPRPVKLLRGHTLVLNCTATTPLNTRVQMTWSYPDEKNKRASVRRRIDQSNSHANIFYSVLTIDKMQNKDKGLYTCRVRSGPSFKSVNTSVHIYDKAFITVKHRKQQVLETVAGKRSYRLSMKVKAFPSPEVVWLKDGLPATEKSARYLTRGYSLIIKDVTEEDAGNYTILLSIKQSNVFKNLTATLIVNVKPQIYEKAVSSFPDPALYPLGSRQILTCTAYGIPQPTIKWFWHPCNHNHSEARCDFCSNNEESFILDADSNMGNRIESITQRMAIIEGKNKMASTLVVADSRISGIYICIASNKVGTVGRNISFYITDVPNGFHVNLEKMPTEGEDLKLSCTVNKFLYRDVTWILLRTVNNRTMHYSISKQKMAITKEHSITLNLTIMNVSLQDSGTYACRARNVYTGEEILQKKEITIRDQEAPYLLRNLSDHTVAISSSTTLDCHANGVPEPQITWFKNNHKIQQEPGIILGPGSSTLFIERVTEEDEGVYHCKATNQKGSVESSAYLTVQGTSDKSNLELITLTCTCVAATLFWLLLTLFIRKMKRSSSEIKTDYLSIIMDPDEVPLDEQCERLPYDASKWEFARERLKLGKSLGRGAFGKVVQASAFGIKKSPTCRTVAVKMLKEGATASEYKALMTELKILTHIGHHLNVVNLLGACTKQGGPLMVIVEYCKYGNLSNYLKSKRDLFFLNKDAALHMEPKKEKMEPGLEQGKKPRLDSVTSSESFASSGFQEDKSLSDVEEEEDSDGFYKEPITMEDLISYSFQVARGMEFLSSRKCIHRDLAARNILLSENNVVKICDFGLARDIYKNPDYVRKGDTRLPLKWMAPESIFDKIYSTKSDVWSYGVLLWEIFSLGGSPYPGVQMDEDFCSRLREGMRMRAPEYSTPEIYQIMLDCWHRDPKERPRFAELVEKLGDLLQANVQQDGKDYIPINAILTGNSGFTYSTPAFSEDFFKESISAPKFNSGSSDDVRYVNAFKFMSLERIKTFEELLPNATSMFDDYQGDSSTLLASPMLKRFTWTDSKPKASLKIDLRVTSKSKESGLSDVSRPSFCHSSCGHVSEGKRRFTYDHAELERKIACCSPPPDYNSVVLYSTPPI
The conditions noted are these: FLT1; 1 uM. In a few lines:
as §1

In assay [6] the target is T6, kinases of the scanMAX Kinase assay panel (Homo sapiens, UniProt P45984).
T6 construct: purchased DiscoverX Co. (contract measurement) scanMAX Kinase assay panel
T6 sequence (P45984 whole entry): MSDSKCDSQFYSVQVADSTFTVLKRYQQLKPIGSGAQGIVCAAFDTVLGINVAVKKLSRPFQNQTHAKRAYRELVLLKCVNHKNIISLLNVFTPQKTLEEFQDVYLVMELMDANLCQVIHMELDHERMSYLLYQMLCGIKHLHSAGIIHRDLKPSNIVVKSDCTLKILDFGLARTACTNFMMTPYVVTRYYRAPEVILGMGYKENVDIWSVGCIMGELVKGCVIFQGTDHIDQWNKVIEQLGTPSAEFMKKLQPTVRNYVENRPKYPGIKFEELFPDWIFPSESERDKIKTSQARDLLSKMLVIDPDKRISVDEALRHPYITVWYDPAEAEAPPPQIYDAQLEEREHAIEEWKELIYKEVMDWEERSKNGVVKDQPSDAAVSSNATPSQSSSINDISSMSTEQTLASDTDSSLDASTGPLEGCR
The conditions noted are these: JNK2; 1 uM. The procedure, abridged: as §1

Assay [7] addresses T7, kinases of the scanMAX Kinase assay panel (Homo sapiens, UniProt Q8NG66).
T7 construct: purchased DiscoverX Co. (contract measurement) scanMAX Kinase assay panel
T7 sequence (Q8NG66 1-645): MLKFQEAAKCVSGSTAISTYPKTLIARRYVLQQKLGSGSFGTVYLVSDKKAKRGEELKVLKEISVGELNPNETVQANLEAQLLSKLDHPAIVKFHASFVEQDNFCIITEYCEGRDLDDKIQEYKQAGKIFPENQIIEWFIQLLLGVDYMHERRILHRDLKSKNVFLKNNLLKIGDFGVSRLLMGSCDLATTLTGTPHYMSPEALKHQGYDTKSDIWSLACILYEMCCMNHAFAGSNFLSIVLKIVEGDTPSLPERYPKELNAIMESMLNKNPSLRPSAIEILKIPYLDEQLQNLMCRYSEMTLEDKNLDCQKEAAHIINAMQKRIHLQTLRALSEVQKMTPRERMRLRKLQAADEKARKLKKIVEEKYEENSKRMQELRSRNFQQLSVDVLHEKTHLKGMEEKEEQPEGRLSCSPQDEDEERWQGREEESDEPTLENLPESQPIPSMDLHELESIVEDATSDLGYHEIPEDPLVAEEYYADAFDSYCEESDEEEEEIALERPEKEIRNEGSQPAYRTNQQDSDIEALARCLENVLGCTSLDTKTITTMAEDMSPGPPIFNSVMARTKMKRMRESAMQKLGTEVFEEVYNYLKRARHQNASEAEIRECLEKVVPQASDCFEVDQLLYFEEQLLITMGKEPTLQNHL
Particulars: NEK11; 1 uM. The procedure, abridged: as §1

The target in assay [8] is T8, kinases of the scanMAX Kinase assay panel (Homo sapiens, UniProt Q8TBX8).
T8 construct: purchased DiscoverX Co. (contract measurement) scanMAX Kinase assay panel
T8 sequence (Q8TBX8 1-421): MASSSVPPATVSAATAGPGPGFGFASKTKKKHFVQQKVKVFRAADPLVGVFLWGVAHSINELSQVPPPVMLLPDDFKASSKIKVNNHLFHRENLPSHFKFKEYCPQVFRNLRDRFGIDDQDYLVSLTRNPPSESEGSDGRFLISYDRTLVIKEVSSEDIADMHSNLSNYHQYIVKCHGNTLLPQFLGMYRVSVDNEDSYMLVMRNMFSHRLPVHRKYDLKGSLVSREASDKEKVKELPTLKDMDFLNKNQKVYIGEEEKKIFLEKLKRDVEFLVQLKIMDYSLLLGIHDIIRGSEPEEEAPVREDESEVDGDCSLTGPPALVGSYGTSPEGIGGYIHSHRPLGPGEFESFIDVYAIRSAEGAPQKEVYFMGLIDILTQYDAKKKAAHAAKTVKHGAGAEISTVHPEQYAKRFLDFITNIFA
Particulars: PIP5K2C; 1 uM. In a few lines: as §1

The target of assay [9] is T9, kinases of the scanMAX Kinase assay panel (Homo sapiens, UniProt Q9UBE8).
T9 construct: purchased DiscoverX Co. (contract measurement) scanMAX Kinase assay panel
T9 sequence (Q9UBE8 1-527): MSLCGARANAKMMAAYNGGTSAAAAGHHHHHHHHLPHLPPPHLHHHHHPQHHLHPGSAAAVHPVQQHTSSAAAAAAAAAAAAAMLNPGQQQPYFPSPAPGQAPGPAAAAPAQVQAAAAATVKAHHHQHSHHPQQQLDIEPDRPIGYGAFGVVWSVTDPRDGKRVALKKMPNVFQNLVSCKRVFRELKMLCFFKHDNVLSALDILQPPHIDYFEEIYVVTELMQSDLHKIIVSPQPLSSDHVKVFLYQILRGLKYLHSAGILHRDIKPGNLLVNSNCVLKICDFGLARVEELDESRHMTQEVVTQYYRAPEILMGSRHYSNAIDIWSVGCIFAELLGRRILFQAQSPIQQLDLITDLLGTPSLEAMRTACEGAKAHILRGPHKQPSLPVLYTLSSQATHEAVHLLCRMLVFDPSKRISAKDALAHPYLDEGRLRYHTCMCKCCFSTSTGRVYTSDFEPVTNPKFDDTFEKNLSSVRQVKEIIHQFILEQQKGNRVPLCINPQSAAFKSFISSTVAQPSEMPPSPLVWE
Particulars: NLK; 1 uM. The procedure, abridged: as §1

T4 sequence (P14616 27-1297): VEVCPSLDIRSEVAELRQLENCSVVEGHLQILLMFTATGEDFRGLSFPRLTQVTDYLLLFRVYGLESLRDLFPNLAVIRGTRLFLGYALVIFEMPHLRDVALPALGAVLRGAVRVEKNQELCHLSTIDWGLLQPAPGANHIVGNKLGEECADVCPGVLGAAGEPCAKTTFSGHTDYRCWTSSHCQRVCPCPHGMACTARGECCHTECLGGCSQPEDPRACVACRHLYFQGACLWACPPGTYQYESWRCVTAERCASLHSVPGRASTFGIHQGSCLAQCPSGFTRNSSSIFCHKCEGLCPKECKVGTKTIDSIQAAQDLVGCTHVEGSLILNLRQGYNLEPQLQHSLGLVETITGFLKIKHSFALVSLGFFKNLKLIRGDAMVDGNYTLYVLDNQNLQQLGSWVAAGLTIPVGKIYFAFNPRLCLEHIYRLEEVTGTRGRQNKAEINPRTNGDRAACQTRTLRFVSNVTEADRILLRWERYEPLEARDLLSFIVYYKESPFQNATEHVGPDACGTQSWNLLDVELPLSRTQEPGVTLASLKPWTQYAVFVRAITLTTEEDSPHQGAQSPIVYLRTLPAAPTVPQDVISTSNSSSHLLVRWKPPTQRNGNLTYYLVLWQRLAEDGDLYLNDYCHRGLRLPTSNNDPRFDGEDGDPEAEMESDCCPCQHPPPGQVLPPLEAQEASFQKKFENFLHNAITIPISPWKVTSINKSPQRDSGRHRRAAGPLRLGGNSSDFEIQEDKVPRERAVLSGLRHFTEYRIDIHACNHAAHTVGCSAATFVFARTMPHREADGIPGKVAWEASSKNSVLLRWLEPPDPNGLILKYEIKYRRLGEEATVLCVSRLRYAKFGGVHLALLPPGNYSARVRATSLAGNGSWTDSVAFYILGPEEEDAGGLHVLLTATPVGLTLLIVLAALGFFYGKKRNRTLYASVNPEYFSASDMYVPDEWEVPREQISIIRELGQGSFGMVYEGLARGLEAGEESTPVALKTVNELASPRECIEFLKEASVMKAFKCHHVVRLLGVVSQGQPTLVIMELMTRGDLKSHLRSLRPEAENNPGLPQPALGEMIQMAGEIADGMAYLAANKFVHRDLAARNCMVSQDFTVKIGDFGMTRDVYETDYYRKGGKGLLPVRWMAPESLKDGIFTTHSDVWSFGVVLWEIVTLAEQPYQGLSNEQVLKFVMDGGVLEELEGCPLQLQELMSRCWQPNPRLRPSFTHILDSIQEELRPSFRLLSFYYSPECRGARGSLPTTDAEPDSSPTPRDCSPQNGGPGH
T3 sequence (P10721 26-976 V559D): as the sequence (P10721 26-976 D816H) above, with V534D, H791D counted along it

`CNc1nc(Nc2ccc(C(=O)N3CCOCC3)cc2OC)nc2[nH]cc(C#N)c12` [Example 1, 2-((2-methoxy-4-(morpholine-4-carbonyl)phenyl)amino)-4-(methylamino)-7H-pyrrolo[2,3-d]pyrimidine-5-carbonitrile]: the remaining binding at 1 µM in assay [1] is 100%; in assay [2], 77%; in assay [3], 38%; in assay [4] it was 61%; in [5] it was 99%; in [6], 0.1%. Moreover, the remaining binding at 1 µM in assay [7] is 70%; in assay [8] it was 4.5%; in [9], 98%.
Regarding `CC1(Nc2nc(Nc3cnn([C@H]4CCN(C5COC5)C[C@@H]4F)c3Cl)nc3[nH]cc(C#N)c23)CC1` [Example 52, 2-((5-chloro-1-((3S,4S)-3-fluoro-1-(oxetane-3-yl)piperidine-4-yl)-1H-pyrazole-4-yl)amino)((1-methylcyclopropyl)amino)-7H-pyrrolo[2,3-d]pyrimidine-5-carbonitrile], the remaining binding at 1 µM stood at 32% in assay [1]; 8.1% in assay [2]; 0% in assay [3]; 6.5% in [4]; 6.2% in assay [5]; 0% in [6]. Further, the remaining binding at 1 µM worked out at 100% in [7], 0% in assay [8] and 75% in [9].
For `CCNc1nc(Nc2ccc(C(=O)N3CCC(N4CCOCC4)CC3)cc2OC)nc2[nH]cc(C(F)(F)F)c12` [Example 104, (4-((4-(ethylamino)-5-(trifluoromethyl)-7H-pyrrolo[2,3-d]pyrimidine-2-yl)amino)-3-methoxyphenyl)(4-morpholinopiperidine-1-yl)methanone], the remaining binding at 1 µM in [1] amounted to 100%; in assay [2], 100%; in assay [3] it was 46%; in assay [4] it was 3.2%; in [5], 100%; in assay [6], 23%. The figures for the remaining binding at 1 µM in [7], in [8] and in [9] were 100%, 77% and 69%, respectively.
